The molecules below were run against PI3K delta (Homo sapiens, UniProt O00329) (assay: Luciferase-coupled chemiluminescence kinase assay (ATP consumption, KinaseGlo)).
Format: biochemical
Protocol: Kinase activity and compound inhibition were investigated using one or more of the assay formats described below. The ATP concentrations used in the various assays were approximately equal to or less than the KM for each of the respective kinases. Dose-response experiments were performed using an intra-plate dilution scheme with 10 different inhibitor concentrations in a 384-well microtiter plate. IC50 values were calculated by nonlinear regression analysis using the four-parameter equation listed below:
Y=min+(max−min)/(1+(X/IC50)^N) Equation 1
Typically N should approximate unity. Curve fitting was performed using XLFit or ActivityBase.
Kinase activity is measured as the percent of ATP consumed following the kinase reaction using luciferase-luciferin-coupled chemiluminescence. […] Kinase reactions were initiated by combining test compounds, kinase, and ATP in a 20 μL volume (6 μL volume for 1536-well plate). The reaction mixture was incubated at ambient temperature for 2 h. Following the kinase reaction, a 20 μL (or […] for 1536-well plate) aliquot of KinaseGlo (Promega) was added and the chemiluminescence signal measured using an EnVision plate reader (Perkin Elmer).

Sequence of PI3K delta (O00329 whole entry): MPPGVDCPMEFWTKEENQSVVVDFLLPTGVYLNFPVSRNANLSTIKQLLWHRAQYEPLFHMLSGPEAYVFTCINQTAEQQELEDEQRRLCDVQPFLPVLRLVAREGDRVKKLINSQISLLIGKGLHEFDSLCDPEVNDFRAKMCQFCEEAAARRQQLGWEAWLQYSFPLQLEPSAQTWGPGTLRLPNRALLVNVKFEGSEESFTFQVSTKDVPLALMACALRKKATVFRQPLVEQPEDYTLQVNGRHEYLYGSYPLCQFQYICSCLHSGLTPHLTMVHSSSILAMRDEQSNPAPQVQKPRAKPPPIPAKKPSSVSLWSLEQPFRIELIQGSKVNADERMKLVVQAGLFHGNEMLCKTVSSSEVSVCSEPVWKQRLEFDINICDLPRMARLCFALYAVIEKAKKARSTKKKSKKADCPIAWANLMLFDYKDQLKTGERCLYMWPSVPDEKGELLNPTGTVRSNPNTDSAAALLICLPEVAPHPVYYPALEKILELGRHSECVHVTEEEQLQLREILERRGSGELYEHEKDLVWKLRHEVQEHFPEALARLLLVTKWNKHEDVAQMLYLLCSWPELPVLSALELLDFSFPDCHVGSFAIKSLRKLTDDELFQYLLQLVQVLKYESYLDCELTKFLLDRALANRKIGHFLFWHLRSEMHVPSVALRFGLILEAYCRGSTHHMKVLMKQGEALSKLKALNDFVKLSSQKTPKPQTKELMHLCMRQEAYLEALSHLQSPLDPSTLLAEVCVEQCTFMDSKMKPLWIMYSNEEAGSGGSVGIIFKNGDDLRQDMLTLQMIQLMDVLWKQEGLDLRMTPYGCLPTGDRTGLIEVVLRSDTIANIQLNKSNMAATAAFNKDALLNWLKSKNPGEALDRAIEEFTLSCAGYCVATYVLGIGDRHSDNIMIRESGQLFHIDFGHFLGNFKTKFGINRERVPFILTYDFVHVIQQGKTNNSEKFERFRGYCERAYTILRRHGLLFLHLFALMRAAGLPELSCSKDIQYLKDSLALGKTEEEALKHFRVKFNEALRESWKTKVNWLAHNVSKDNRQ
Sequence of PI3K delta (P27986 whole entry partner): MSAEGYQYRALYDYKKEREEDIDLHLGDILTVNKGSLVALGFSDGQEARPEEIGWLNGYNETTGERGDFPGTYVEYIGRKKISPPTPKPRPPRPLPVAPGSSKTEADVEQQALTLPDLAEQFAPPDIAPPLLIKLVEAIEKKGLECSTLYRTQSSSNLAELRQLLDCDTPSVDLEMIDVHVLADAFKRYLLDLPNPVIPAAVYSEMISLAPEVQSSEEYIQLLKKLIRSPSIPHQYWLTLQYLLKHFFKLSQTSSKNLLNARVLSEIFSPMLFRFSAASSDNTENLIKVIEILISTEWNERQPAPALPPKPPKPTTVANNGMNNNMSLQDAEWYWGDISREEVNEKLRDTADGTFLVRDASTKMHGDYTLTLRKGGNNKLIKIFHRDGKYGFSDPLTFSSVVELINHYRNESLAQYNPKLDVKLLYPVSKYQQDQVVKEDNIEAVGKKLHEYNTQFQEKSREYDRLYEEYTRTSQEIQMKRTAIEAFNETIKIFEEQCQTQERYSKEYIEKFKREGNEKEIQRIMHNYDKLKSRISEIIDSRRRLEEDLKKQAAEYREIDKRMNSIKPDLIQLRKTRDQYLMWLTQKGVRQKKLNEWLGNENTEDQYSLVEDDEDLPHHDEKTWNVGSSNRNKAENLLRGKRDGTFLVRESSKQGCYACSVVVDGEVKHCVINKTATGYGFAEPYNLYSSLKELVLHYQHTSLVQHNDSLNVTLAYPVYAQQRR

| SMILES | IC50 |
| --- | --- |
| CCCNC(=O)c1nc2c(N3CCC(n4c(=O)[nH]c5ccccc54)CC3)ncnc2n1CC [Compound 193, 9-ethyl-6-[4-(2-oxo-2,3-dihydro-1H-benzimidazol-1-yl)piperidin-1-yl]-N-propyl-9H-purine-8-carboxamide] | < 0.05 µM |
| Cn1c(-c2nnc(C3CC3)o2)nc2c(N3CCC4(CC3)C(=O)Nc3ccccc34)ncnc21 [Compound 184, 1′-[8-(5-cyclopropyl-1,3,4-oxadiazol-2-yl)-9-methyl-9H-purin-6-yl]spiro[indole-3,4′-piperidin]-2(1H)-one] | < 0.05 µM |
| Cn1c(C(=O)NCC2CC2)nc2c(N3CCC(N4C(=O)Cc5ccccc54)CC3)ncnc21 [Compound 117, N-(cyclopropylmethyl)-9-methyl-6-[4-(2-oxo-2,3-dihydro-1H-indol-1-yl)piperidin-1-yl]-9H-purine-8-carboxamide] | 0.05 to 0.25 µM |
| CCCCNC(=O)c1nc2c(N3CCC(n4c(=O)[nH]c5ccccc54)CC3)ncnc2n1CC [Compound 157, N-butyl-9-ethyl-6-[4-(2-oxo-2,3-dihydro-1H-benzimidazol-1-yl)piperidin-1-yl]-9H-purine-8-carboxamide] | 0.05 to 0.25 µM |
| Cn1c(C(=O)NCC2CCCO2)nc2c(N3CCC4(CC3)C(=O)Nc3ccccc34)ncnc21 (centres unmarked) [Compound 85, 9-methyl-6-(2-oxo-1,2-dihydro-1′H-spiro[indole-3,4′-piperidin]-1′-yl)-N-(tetrahydrofuran-2-ylmethyl)-9H-purine-8-carboxamide] | 0.5 to 1.5 µM |
| COc1ccc(S(=O)(=O)N2CCN(c3ncnc4c3nc(-c3cnn(C)c3)n4C)CC2)cc1OC [Compound 387, 6-(4-{[3,4-bis(methyloxy)phenyl]sulfonyl}-piperazin-1-yl)-9-methyl-8-(1-methyl-1H-pyrazol-4-yl)-9H-purine] | 0.5 to 1.5 µM |
| Cn1c(C(=O)N2CC[C@H](F)C2)nc2c(N3CCC4(CC3)C(=O)Nc3ccccc34)ncnc21 [Compound 109, 1′-(8-{[(3S)-3-fluoropyrrolidin-1-yl]carbonyl}-9-methyl-9H-purin-6-yl)spiro[indole-3,4′-piperidin]-2(1H)-one] | 0.05 to 0.25 µM |
| CCn1c(C(=O)N[C@H]2CC[C@H](O)CC2)nc2c(N3CCC(n4c(=O)[nH]c5ccccc54)CC3)ncnc21 [Compound 154, 9-ethyl-N-(trans-4-hydroxycyclohexyl)-6-[4-(2-oxo-2,3-dihydro-1H-benzimidazol-1-yl)piperidin-1-yl]-9H-purine-8-carboxamide] | < 0.05 µM |
| Cn1c(-c2cnn(CC3CCC3)c2)nc2c(N3CCC(n4c(=O)[nH]c5ccccc54)CC3)ncnc21 [Compound 231] | < 0.05 µM |
| CCCCCCNC(=O)c1nc2c(N3CCC(n4c(=O)[nH]c5ccccc54)CC3)ncnc2n1C [Compound 71, N-hexyl-9-methyl-6-[4-(2-oxo-2,3-dihydro-1H-benzimidazol-1-yl)piperidin-1-yl]-9H-purine-8-carboxamide] | 0.25 to 0.5 µM |
| CC(NC(=O)c1nc2c(N3CCC4(CC3)C(=O)Nc3ccccc34)ncnc2n1C)c1ccccc1 (centres unmarked) [Compound 23, 9-methyl-6-(2-oxo-1,2-dihydro-1′H-spiro[indole-3,4′-piperidin]-1′-yl)-N-(1-phenylethyl)-9H-purine-8-carboxamide] | 0.5 to 1.5 µM |
| Cn1c(C(=O)NCC2CCCOC2)nc2c(N3CCC(n4c(=O)[nH]c5ccccc54)CC3)ncnc21 (centres unmarked) [Compound 11, 9-methyl-6-[4-(2-oxo-2,3-dihydro-1H-benzimidazol-1-yl)piperidin-1-yl]-N-(tetrahydro-2H-pyran-3-ylmethyl)-9H-purine-8-carboxamide] | 0.25 to 0.5 µM |
| Cn1cc(-c2nc3c(N4CCN(c5ccccc5CNS(=O)(=O)c5ccc6ccccc6c5)CC4)ncnc3n2C)cn1 [Compound 364, N-[(2-{4-[9-methyl-8-(1-methyl-1H-pyrazol-4-yl)-9H-purin-6-yl]piperazin-1-yl}phenyl)methyl]naphthalene-2-sulfonamide] | 0.5 to 1.5 µM |
| Cn1cc(-c2nc3c(N4CCN(S(=O)(=O)c5ccccc5)CC4)ncnc3n2C)cn1 [Compound 355, 9-methyl-8-(1-methyl-1H-pyrazol-4-yl)-6-[4-(phenylsulfonyl)piperazin-1-yl]-9H-purine] | 0.25 to 0.5 µM |
| Cn1c(-n2cccc2)nc2c(N3CCC(n4c(=O)[nH]c5ccccc54)CC3)ncnc21 [Compound 127, 1-{1-[9-methyl-8-(1H-pyrrol-1-yl)-9H-purin-6-yl]piperidin-4-yl}-1,3-dihydro-2H-benzimidazol-2-one] | 0.5 to 1.5 µM |
| Cn1cc(-c2nc3c(N4CCC(n5c(=O)[nH]c6cnccc65)CC4)ncnc3n2C)cn1 [Compound 341, 1-{1-[9-methyl-8-(1-methyl-1H-pyrazol-4-yl)-9H-purin-6-yl]piperidin-4-yl}-1,3-dihydro-2H-imidazo[4,5-c]pyridin-2-one] | 0.25 to 0.5 µM |

| SMILES | IC50 |
| --- | --- |
| CCn1c(C(=O)NC2COC2)nc2c(N3CCC(n4c(=O)[nH]c5ccccc54)CC3)ncnc21 [Compound 208, 9-ethyl-N-oxetan-3-yl-6-[4-(2-oxo-2,3-dihydro-1H-benzimidazol-1-yl)piperidin-1-yl]-9H-purine-8-carboxamide] | < 0.05 µM |
| Cn1c(C(=O)NCC2CC2)nc2c(N3CCC(c4c[nH]c5ccccc45)CC3)ncnc21 [Compound 100, N-(cyclopropylmethyl)-6-[4-(1H-indol-3-yl)piperidin-1-yl]-9-methyl-9H-purine-8-carboxamide] | 0.5 to 1.5 µM |
| CCn1c(-c2cnn(C)c2C)nc2c(N3CCC(n4c(=O)[nH]c5ccccc54)CC3)ncnc21 [Compound 260, 1-{1-[8-(1,5-dimethyl-1H-pyrazol-4-yl)-9-ethyl-9H-purin-6-yl]piperidin-4-yl}-1,3-dihydro-2H-benzimidazol-2-one] | < 0.05 µM |
| Cn1c(-c2ccc(Cl)nc2)nc2c(N3CCC(n4c(=O)[nH]c5ccccc54)CC3)ncnc21 [Compound 283, 1-{1-[8-(6-chloropyridin-3-yl)-9-methyl-9H-purin-6-yl]piperidin-4-yl}-1,3-dihydro-2H-benzimidazol-2-one] | < 0.05 µM |
| CCn1c(-c2cn[nH]c2)nc2c(N3CCC4(CC3)C(=O)Nc3ccccc34)ncnc21 [Compound 252, 1′-[9-ethyl-8-(1H-pyrazol-4-yl)-9H-purin-6-yl]spiro[indole-3,4′-piperidin]-2(1H)-one] | < 0.05 µM |
| CCn1c(-c2cnn(C)c2)nc2c(N3CCC(n4c(=O)[nH]c5ncccc54)CC3)ncnc21 [Compound 323, 1-{1-[9-ethyl-8-(1-methyl-1H-pyrazol-4-yl)-9H-purin-6-yl]piperidin-4-yl}-1,3-dihydro-2H-imidazo[4,5-b]pyridin-2-one] | < 0.05 µM |
| CC(C)NC(=O)c1nc2c(N3CCC(n4c(=O)[nH]c5ccccc54)CC3)ncnc2n1C [Compound 54, 9-methyl-N-(1-methylethyl)-6-[4-(2-oxo-2,3-dihydro-1H-benzimidazol-1-yl)piperidin-1-yl]-9H-purine-8-carboxamide] | 0.05 to 0.25 µM |
| Cn1cc(-c2nc3c(N4CCN(c5cccc(OCC(=O)NC6CCCCC6)c5)CC4)ncnc3n2C)cn1 [Compound 358, N-cyclohexyl-2-[(3-{4-[9-methyl-8-(1-methyl-1H-pyrazol-4-yl)-9H-purin-6-yl]piperazin-1-yl}phenyl)oxy]acetamide] | 0.5 to 1.5 µM |
| CCn1cc(-c2nc3c(N4CCC5(CC4)C(=O)Nc4ccccc45)ncnc3n2C)cn1 [Compound 237, 1′-[8-(1-Ethyl-1H-pyrazol-4-yl)-9-methyl-9H-purin-6-yl]spiro[indole-3,4′-piperidin]-2(1H)-one] | < 0.05 µM |
| Cn1c(C(=O)NCC(F)(F)F)nc2c(N3CCC4(CC3)C(=O)Nc3ccccc34)ncnc21 [Compound 30, 9-methyl-6-(2-oxo-1,2-dihydro-1′H-spiro[indole-3,4′-piperidin]-1′-yl)-N-(2,2,2-trifluoroethyl)-9H-purine-8-carboxamide] | < 0.05 µM |
| Cn1c(-n2cnc(C(F)(F)F)c2)nc2c(N3CCC(n4c(=O)[nH]c5ccccc54)CC3)ncnc21 [Compound 165, 1-(1-{9-methyl-8-[4-(trifluoromethyl)-1H-imidazol-1-yl]-9H-purin-6-yl}piperidin-4-yl)-1,3-dihydro-2H-benzimidazol-2-one] | 0.05 to 0.25 µM |
| CCn1c(C(=O)NC(C)C2CC2)nc2c(N3CCC(n4c(=O)[nH]c5ccccc54)CC3)ncnc21 (centres unmarked) [Compound 187, N-(1-cyclopropylethyl)-9-ethyl-6-[4-(2-oxo-2,3-dihydro-1H-benzimidazol-1-yl)piperidin-1-yl]-9H-purine-8-carboxamide] | < 0.05 µM |
| CN(C)c1ncc(-c2nc3c(N4CCC(n5c(=O)[nH]c6ccccc65)CC4)ncnc3n2C)cn1 [Compound 311, 1-(1-{8-[2-(dimethylamino)pyrimidin-5-yl]-9-methyl-9H-purin-6-yl}piperidin-4-yl)-1,3-dihydro-2H-benzimidazol-2-one] | < 0.05 µM |
| COC(=O)[C@@H]1CN(c2ncnc3c2nc(-c2cnn(C)c2)n3C)CC[C@H]1n1c(=O)[nH]c2ccccc21 [Compound 334, methyl (3R,4R)-1-[9-methyl-8-(1-methyl-1H-pyrazol-4-yl)-9H-purin-6-yl]-4-(2-oxo-2,3-dihydro-1H-benzimidazol-1-yl)piperidine-3-carboxylate] | < 0.05 µM |
| CCCCCCNC(=O)c1nc2c(N3CCC4(CC3)C(=O)Nc3ccccc34)ncnc2n1C [Compound 37, N-hexyl-9-methyl-6-(2-oxo-1,2-dihydro-1′H-spiro[indole-3,4′-piperidin]-1′-yl)-9H-purine-8-carboxamide] | 0.5 to 1.5 µM |
| Cn1c(-c2ccc(N)nc2)nc2c(N3CCC(n4c(=O)[nH]c5ncccc54)CC3)ncnc21 [Compound 343, 1-{1-[8-(6-aminopyridin-3-yl)-9-methyl-9H-purin-6-yl]piperidin-4-yl}-1,3-dihydro-2H-imidazo[4,5-b]pyridin-2-one] | < 0.05 µM |

Source: patent publication US20140058103A1, “Inhibitors of PI3K-Delta and Methods of Their Use and Manufacture” (Exelixis, Inc., priority 2010, published 2014)
